Values of other authors in patent publication US20100135908A1, “Delivery devices for modulating inflammation” (Searete LLC, a limited liability corporation of the state …, priority 2008, published 2010).
Values belong to the compound of their own block, whether it stands above or below them.

How the values were obtained:
[1] = mice
[2] = single agent, 400 mg infused over one hour
[3] = system: Src family kinase
[4] = system: Src family kinases (Src, Lck, Yes, Fyn); conditions: at nanomolar concentrations
[5] = system: proteasome; conditions: cultured breast cancer cells; disulfiram bound to copper

Compound: Cl.Cl.Nc1ccccc1Oc1ccc2c(N)nsc2c1 [Example M62812, 3-amino-6-(2-aminophenoxy)-1,2-benzisothiazole dihydrochloride]
prevention of lethal septic shock [1]: prevents lethal septic shock

complications of intravenous infusion [2]: without complication
Compound: CCN(CC)CCCC(C)Nc1ccnc2cc(Cl)ccc12.O=P(O)(O)O.O=P(O)(O)O (centres unmarked) [chloroquine phosphate, 7-chloro-4-[[4-(diethylamino)-1-methylbutyl]amino]quinoline phosphate (1:2)]

inhibition of CpG-induced Src family kinase activation or its dependent cellular responses [3]: does not inhibit
Compound: CCN(CC)CCCC(C)Nc1ccnc2cc(Cl)ccc12 (centres unmarked) [chloroquine]

Compound: Cc1nc(Nc2ncc(C(=O)Nc3c(C)cccc3Cl)s2)cc(N2CCN(CCO)CC2)n1.O [dasatinib, N-(2-chloro-6-methylphenyl)-2-[[6-[4-(2-hydroxyethyl)-1-piperazinyl]-2-methyl-4-pyrimidinyl]amino]-5-thiazolecarboxamide, monohydrate]
inhibition of Src family kinases (Src, Lck, Yes, Fyn) [4]: inhibits

Compound: CCN(CC)C(=S)SSC(=S)N(CC)CC [disulfiram, 1-(diethylthiocarbamoyldisulfanyl)-N,N-diethyl-methanethioamide]
proteasomal activity [5]: inhibits proteasomal activity
